Consider 14 compounds from PubChem BioAssay (NCI).

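Exposure lasted 48 hours, with cells grown in 96-well plates and compounds tested at five concentrations. TGI denotes the concentration required for complete inhibition of growth.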

One may read the TGI as the concentration at which net growth stops.

Test systems include A498 renal; EKVX NSCLC; HT29 colon; K-562 leukemia; LOX IMVI melanoma; MDA-MB-231 breast; MDA-N; OVCAR-8 ovarian; UACC-62 melanoma.
What all share (assay): DTP human tumour cell line panel, 48 h

Turning to `CCOC(=O)C1(Cc2ccc3c(c2)CCC3)Cc2cc3c(cc2C1)CCC3`, the TGI was > 100 µM in the test on A498 renal; > 100 µM in the test on EKVX NSCLC; 37.9 µM with HT29 colon; > 100 µM in the test with K-562 leukemia; 82.4 µM with LOX IMVI melanoma; > 100 µM with MDA-MB-231 breast. Besides, the TGI in the test with MDA-N, with OVCAR-8 ovarian and in the test with UACC-62 melanoma was > 100 µM each time.

In the case of `CCc1nc(N)nc(N)c1-c1ccc2nn(-c3ccccc3)[n+]([O-])c2c1`, the TGI in the test on A498 renal amounted to 29.2 µM; in the test with EKVX NSCLC, 35.1 µM; in the test with HT29 colon, 20.2 µM; with K-562 leukemia, 22.9 µM; in the test on LOX IMVI melanoma, 17.7 µM; in the test with MDA-MB-231 breast, 25.5 µM. Besides, the TGI with MDA-N was found to be 18.8 µM; in the test on OVCAR-8 ovarian, 26.8 µM; with UACC-62 melanoma, 17.5 µM.

For the compound `CCC1(CC)SCc2nc3ccccc3n21`, the TGI in the test with A498 renal was > 100 µM; in the test on EKVX NSCLC it was 73.7 µM; in the test with HT29 colon, > 100 µM; in the test with K-562 leukemia, 74.5 µM; in the test on LOX IMVI melanoma, > 100 µM; in the test on MDA-MB-231 breast, 90.5 µM. In addition, the TGI in the test on MDA-N, in the test with OVCAR-8 ovarian and with UACC-62 melanoma was > 100 µM in each case.

In the case of `CC(=O)n1nc(-c2ccccc2)n(/N=C/c2ccc([N+](=O)[O-])cc2)c1=O`, the TGI in the test with A498 renal, in the test on EKVX NSCLC, in the test with HT29 colon, in the test on K-562 leukemia, in the test on LOX IMVI melanoma and with MDA-MB-231 breast was > 100 µM in each case. For the same compound, the TGI in the test on MDA-N, in the test with OVCAR-8 ovarian and with UACC-62 melanoma was > 100 µM each time.

Take `CC(=O)NC1C(OCc2ccccc2)OC(CO)C(O)C1OC(C)C(=O)NC(C)C(=O)NC(CCC(=O)NCCCNc1c2ccccc2nc2cccc([N+](=O)[O-])c12)C(N)=O` (stereo unspecified): the TGI is 6.11 µM in the test with A498 renal; 22.6 µM in the test with EKVX NSCLC; > 100 µM with HT29 colon; 11.1 µM in the test on K-562 leukemia; 27.7 µM in the test with LOX IMVI melanoma; 3.26 µM in the test on MDA-MB-231 breast. Also, the total growth inhibition concentration (TGI) turned out to be 2.77 µM in the test with MDA-N, 9.07 µM in the test on OVCAR-8 ovarian and 3.82 µM with UACC-62 melanoma.

Turning to `CCOC(=O)C1=C(C)N(C)C23OC4(C(=O)OC)CC2c2ccccc2C1N3C4=O` (stereo unspecified), the TGI in the test with A498 renal, with EKVX NSCLC, in the test on HT29 colon, with K-562 leukemia, in the test on LOX IMVI melanoma and with MDA-MB-231 breast was > 100 µM in each case. The TGI in the test with MDA-N, with OVCAR-8 ovarian and in the test on UACC-62 melanoma was > 100 µM in each case.

As to `CC[N+](CC)(CCNCC(N)=O)CC(N)=O`, the TGI in the test with A498 renal, with EKVX NSCLC, with HT29 colon, with K-562 leukemia, with LOX IMVI melanoma and with MDA-MB-231 breast was > 10 µM each time. In addition, the TGI in the test with MDA-N, in the test on OVCAR-8 ovarian and in the test with UACC-62 melanoma was > 10 µM each time.

For the compound `CC1=C(C#N)C(C#N)(C#N)C(NN(C)C)C1` (stereo unspecified), the TGI is 43 µM with A498 renal; 86.3 µM in the test with EKVX NSCLC; 38.3 µM with HT29 colon; 60.8 µM in the test on K-562 leukemia; 29.7 µM in the test on LOX IMVI melanoma; 28.4 µM in the test with MDA-MB-231 breast. Further, the results for the TGI in the test on MDA-N, in the test with OVCAR-8 ovarian and in the test on UACC-62 melanoma were 21.9 µM, > 100 µM and 61.6 µM, respectively.

With `O=[N+]([O-])c1ccc(/C=N/n2c(CO)nc3ccccc32)o1`, the total growth inhibition concentration (TGI) was found to be 32.4 µM with A498 renal; 23.6 µM in the test with EKVX NSCLC; 10.3 µM in the test with HT29 colon; 62.7 µM in the test with K-562 leukemia; 15.9 µM in the test on LOX IMVI melanoma; 20.6 µM in the test with MDA-MB-231 breast. In addition, the TGI was 13.3 µM in the test with MDA-N, 25.3 µM in the test with OVCAR-8 ovarian and 21.9 µM in the test with UACC-62 melanoma.

For `COc1ccc(C(=O)Sc2c(-c3ccccc3)c(=O)n(-c3ccccc3)c(=S)n2-c2ccccc2)cc1`, the TGI is 44 µM with A498 renal; > 100 µM in the test on EKVX NSCLC; > 100 µM with HT29 colon; > 100 µM with K-562 leukemia; > 100 µM in the test on LOX IMVI melanoma; > 100 µM in the test with MDA-MB-231 breast. Besides, the TGI in the test with MDA-N, in the test on OVCAR-8 ovarian and in the test on UACC-62 melanoma was > 100 µM in each case.

Turning to `CCN(CC)c1c(N(CC)CC)c(=O)c1=O`, the concentration for total growth inhibition (TGI) in the test on A498 renal was 58.1 µM; with EKVX NSCLC it was 28.6 µM; in the test with HT29 colon, 5.96 µM; with K-562 leukemia, > 100 µM; in the test on LOX IMVI melanoma, 25.8 µM; in the test with MDA-MB-231 breast it was 15.8 µM. The TGI with MDA-N came to 32.1 µM; with OVCAR-8 ovarian it was 27.6 µM; in the test with UACC-62 melanoma it was 45.7 µM.

For `C[C@@H]1C[C@H]2[C@@H]3CCC4=CC(=O)C=C[C@]4(C)[C@@]3(Cl)[C@@H](Cl)C[C@]2(C)[C@@]1(O)C(=O)COP(=O)(O)O`, the TGI with A498 renal, in the test on EKVX NSCLC, with HT29 colon, with K-562 leukemia, in the test with LOX IMVI melanoma and with MDA-MB-231 breast was > 100 µM in each case. For the same compound, the TGI in the test on MDA-N, in the test on OVCAR-8 ovarian and with UACC-62 melanoma was > 100 µM each time.

For `C[N+](C)([O-])CCC=C1c2ccccc2CCc2ccccc21`, the TGI in the test on A498 renal worked out at 48.1 µM; in the test with EKVX NSCLC, 59 µM; in the test with HT29 colon, 67.9 µM; in the test on K-562 leukemia it was 52 µM; in the test on LOX IMVI melanoma it was 2.7 µM; in the test on MDA-MB-231 breast, 68 µM. The TGI is 65.3 µM with MDA-N, 52.6 µM in the test on OVCAR-8 ovarian and 41.2 µM with UACC-62 melanoma.

With `NC(Cc1cccc([N+](=O)[O-])c1)C(=O)O` (stereo unspecified), the TGI in the test on A498 renal, in the test on EKVX NSCLC, in the test with HT29 colon, in the test with K-562 leukemia, with LOX IMVI melanoma and with MDA-MB-231 breast was > 100 µM each time. Also, the TGI with MDA-N, in the test with OVCAR-8 ovarian and with UACC-62 melanoma was > 100 µM each time.
